Legend:
human H3 receptor [1] = biological target: T1, human H3 receptor (Homo sapiens, UniProt Q9Y5N1); assay: H3 Receptor Binding Test; details: 50% inhibition of R(−)-α-methyl[3H]histamine (1 nM) binding; membrane preparation of human H3 receptor-expressing CHO-K1 cells
T1 construct: purchased Perkin Elmer ES-392-M400UA; host or cells: CHO-K1 cells (recombinant expression), membrane preparation
Method: A membrane preparation of human H3 receptor-expressing CHO-K1 cells (Perkin Elmer, ES-392-M400UA, 15 μg protein/200 μl), R(−)-α-methyl[^3H]histamine (Amersham, TRK-1017, specific activity: 1.74 TBq/mmol, 1 nM) and a test drug were reacted at room temperature for 1 hour. After completion of the reaction, the reaction mixture was subjected to suction filtration through a 0.3% polyethyleneimine-treated glass filter (GF/C). The glass filter was washed five times with 50 mM Tris-HCl washing solution (pH 7.4) containing 5 mM EDTA. After washing, the glass filter was dried and a scintillator was added thereto, followed by measurement of radioactivity on the filter using a liquid scintillation counter.
Binding of R(−)-α-methyl[^3H]histamine in the presence of 10 μM R(−)-α-methylhistamine was defined as non-specific binding, and the difference between total binding and non-specific binding of R(−)-α-methyl[^3H]histamine was defined as specific binding of R(−)-α-methyl[^3H]histamine. A fixed concentration (1 nM) of R(−)-α-methyl[^3H]histamine was reacted under the above conditions with each test drug at various concentrations to obtain an inhibition curve. The inhibition curve was used to determine the concentration (IC50) of each test drug required for 50% inhibition of R(−)-α-methyl[^3H]histamine binding.

human H3 receptor [2] = biological target: T1, human H3 receptor; assay: [35S]GTP-γ-S Binding Test; assay type: biochemical; details: 50% inhibition of [35S]GTP-γ-S (0.2 nM) binding in presence of 10 nM R(−)-α-methylhistamine; human H3 receptor membrane preparation
Method: The same human H3 receptor membrane preparation as used in Test Example 1 (7.5 μg protein/200 μl), 3 μM GDP, 10 nM R(−)-α-methylhistamine and a test compound were reacted at 30° C. for 20 minutes. After completion of the reaction, [^35S]GTP-γ-S (0.2 nM) was added and reacted for an additional 30 minutes. After completion of the reaction, the reaction mixture was subjected to suction filtration through a glass filter (GF/C). The glass filter was washed three times with 20 mM HEPES washing solution (pH 7.4) containing 100 mM sodium chloride and 3 mM magnesium chloride. After washing, the glass filter was dried and a scintillator was added thereto, followed by measurement of radioactivity on the filter using a liquid scintillation counter. Binding of [^35S]GTP-γ-S in the absence of R(−)-α-methylhistamine was defined as non-specific binding, and the difference between total binding in the presence of R(−)-α-methylhistamine and non-specific binding was defined as specific binding of [^35S]GTP-γ-S. Fixed concentrations of [^35S]GTP-γ-S (0.2 nM) and R(−)-α-methylhistamine (10 nM) were reacted under the above conditions with each test drug at various concentrations to obtain an inhibition curve. The inhibition curve was used to determine the concentration (IC50) of each test drug required for 50% inhibition of [^35S]GTP-γ-S binding.

T1 sequence (Q9Y5N1 whole entry): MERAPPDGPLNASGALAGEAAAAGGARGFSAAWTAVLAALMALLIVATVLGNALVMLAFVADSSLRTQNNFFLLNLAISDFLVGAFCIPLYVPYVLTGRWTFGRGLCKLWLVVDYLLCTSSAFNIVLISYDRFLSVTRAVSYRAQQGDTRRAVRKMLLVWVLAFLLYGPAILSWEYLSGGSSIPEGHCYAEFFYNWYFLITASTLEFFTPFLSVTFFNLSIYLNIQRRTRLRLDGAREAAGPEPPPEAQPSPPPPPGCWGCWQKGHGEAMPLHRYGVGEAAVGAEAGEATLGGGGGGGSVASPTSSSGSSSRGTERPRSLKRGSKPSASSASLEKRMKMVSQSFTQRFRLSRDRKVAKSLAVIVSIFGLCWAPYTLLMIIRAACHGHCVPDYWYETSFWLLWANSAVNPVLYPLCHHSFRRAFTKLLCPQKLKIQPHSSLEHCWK

| IC50 (human H3 receptor [1]) | IC50 (human H3 receptor [2]) | melting point | Compound |
| --- | --- | --- | --- |
| 1.4 nM | 0.26 nM |  | O=C1CCc2cc(OC3CCN(C4CCC4)CC3)ccc2N1c1cncc(F)c1 [Compound No. 71, 6-[(1-cyclobutylpiperidin-4-yl)oxy]-1-(5-fluoropyridin-3-yl)-3,4-dihydroquinolin-2(1H)-one] |
| 1.1 nM | 0.28 nM |  | C[C@@H]1CCCN1CCCOc1ccc2c(c1)CCC(=O)N2c1ccc(F)cc1 [Compound No. 6, 1-(4-fluorophenyl)-6-{3-[(2R)-2-methylpyrrolidin-1-yl]propoxy}-3,4-dihydroquinolin-2(1H)-one] |
| 1.6 nM | 0.4 nM |  | O=C1CCc2cc(OC3CCN(C4CCC4)CC3)ccc2N1c1cnc2ccccc2c1 [Compound No. 58, 6-[(1-cyclobutylpiperidin-4-yl)oxy]-3,4-dihydro-2H-1,3′-biquinolin-2-one] |
| 0.6 nM | 0.16 nM |  | O=C1CCc2cc(OC3CCN(C4CCC4)CC3)ccc2N1c1ccccc1 [Compound No. 72, 6-[(1-cyclobutylpiperidin-4-yl)oxy]-1-phenyl-3,4-dihydroquinolin-2(1H)-one] |
| 0.65 nM | 0.2 nM |  | O=C1CCc2cc(OC3CCN(C4CCC4)CC3)ccc2N1c1cccc(F)c1 [Compound No. 69, 6-[(1-cyclobutylpiperidin-4-yl)oxy]-1-(3-fluorophenyl)-3,4-dihydroquinolin-2(1H)-one] |
| 0.68 nM | 0.21 nM |  | C[C@@H]1CCCN1CCCOc1ccc2c(c1)CCC(=O)N2c1ccc(CN(C)C)cc1 [Compound No. 12, 1-{4-[(dimethylamino)methyl]phenyl}-6-{3-[(2R)-2-methylpyrrolidin-1-yl]propoxy}-3,4-dihydroquinolin-2(1H)-one] |
| 1 nM | 0.23 nM |  | N#Cc1ccc(N2C(=O)CCc3cc(OC4CCN(C5CCC5)CC4)ccc32)cc1 [Compound No. 73, 4-{6-[(1-cyclobutylpiperidin-4-yl)oxy]-2-oxo-3,4-dihydroquinolin-1(2H)-yl}benzonitrile] |
| 6.1 nM |  |  | CC(C)(C)N1CCC(Oc2ccc3c(c2)CCC(=O)N3c2cccc(C#N)c2)CC1 [Compound No. 63, 3-{6-[(1-tert-butylpiperidin-4-yl)oxy]-2-oxo-3,4-dihydroquinolin-1(2H)-yl}benzonitrile] |
| 1 nM |  |  | C[C@@H]1CCCN1CCCOc1ccc2c(c1)CCC(=O)N2c1ccc(F)c(F)c1 [Compound No. 28, 1-(3,4-difluorophenyl)-6-{3-[(2R)-2-methylpyrrolidin-1-yl]propoxy}-3,4-dihydroquinolin-2(1H)-one] |
| 4 nM |  |  | C[C@@H]1CCCN1CCCOc1ccc2c(c1)CCC(=O)N2c1ccc(-c2cnco2)cc1 [Compound No. 19, 6-{3-[(2R)-2-methylpyrrolidin-1-yl]propoxy}-1-[4-(1,3-oxazol-5-yl)phenyl]-3,4-dihydroquinolin-2(1H)-one] |
| 3.6 nM |  |  | CC(=O)c1ccc(N2C(=O)CCc3cc(OCCCN4CCC[C@H]4C)ccc32)cc1 [Compound No. 15, 1-(4-acetylphenyl)-6-{3-[(2R)-2-methylpyrrolidin-1-yl]propoxy}-3,4-dihydroquinolin-2(1H)-one] |
| 11 nM |  |  | C[C@@H]1CCCN1CCCOc1ccc2c(c1)CCC(=O)N2c1ccc(C(=O)C2CC2)cc1 [Compound No. 16, 1-[4-(cyclopropylcarbonyl)phenyl]-6-{3-[(2R)-2-methylpyrrolidin-1-yl]propoxy}-3,4-dihydroquinolin-2(1H)-one] |
| 1 nM |  |  | C[C@@H]1CCCN1CCCOc1ccc2c(c1)CCC(=O)N2c1ccc(F)cc1F [Compound No. 29, 1-(2,4-difluorophenyl)-6-{3-[(2R)-2-methylpyrrolidin-1-yl]propoxy}-3,4-dihydroquinolin-2(1H)-one] |
| 2.7 nM |  |  | Cc1ccc(N2C(=O)CCc3cc(OCCCN4CCC[C@H]4C)ccc32)cc1C#N [Compound No. 32, 2-methyl-5-[6-{3-[(2R)-2-methylpyrrolidin-1-yl]propoxy}-2-oxo-3,4-dihydroquinolin-1(2H)-yl]benzonitrile] |
|  |  | > 250 °C | Cl.O=C1CCc2cc(OC3CCN(C4CCC4)CC3)ccc2N1c1ccc(F)cc1 |
| 12 nM |  |  | Cc1cc(OCCCN2CCC[C@H]2C)cc2c1N(c1ccc(F)cc1)C(=O)CC2 [Compound No. 86, 1-(4-fluorophenyl)-8-methyl-6-{3-[(2R)-2-methylpyrrolidin-1-yl]propoxy}-3,4-dihydroquinolin-2(1H)-one] |
| 8.3 nM | 0.62 nM |  | C[C@@H]1CCCN1CCCOc1ccc2c(c1)CCC(=O)N2c1ccc(C(=O)N(C)C)cc1 [Compound No. 13, N,N-dimethyl-4-[6-{3-[(2R)-2-methylpyrrolidin-1-yl]propoxy}-2-oxo-3,4-dihydroquinolin-1(2H)-yl]benzamide] |
| 2.1 nM |  |  | C[C@@H]1CCCN1CCCOc1ccc2c(c1)CCC(=O)N2c1cc(F)cc(F)c1 [Compound No. 27, 1-(3,5-difluorophenyl)-6-{3-[(2R)-2-methylpyrrolidin-1-yl]propoxy}-3,4-dihydroquinolin-2(1H)-one] |
| 0.8 nM | 0.23 nM |  | O=C1CCc2cc(OC3CCN(C4CCC4)CC3)ccc2N1c1ccc(F)cc1 [Compound No. 60, 6-[(1-cyclobutylpiperidin-4-yl)oxy]-1-(4-fluorophenyl)-3,4-dihydroquinolin-2(1H)-one] |

— patent publication US8609847B2, “Dihydroquinolinone derivatives” (Taisho Pharmaceutical Co., Ltd, priority 2009, dated 2013)
